According to patent US4333938A, “Imino derivatives of 5-aminobenzodioxole-1,3 which are useful as medicaments” (Laboratoires Sarget, priority 1979, dated 1982):
Several values for one entry are separate records, joined by “and”; a condition that tells them apart may be missing. Equal entries are not always repeated.

Legend:
[1] = oral toxicity (mortality) in the mouse; settings: in vivo, Swiss mice
Method: The percentages of mortality produced by the compounds of this invention when administered orally to Swiss mice are shown in Table 1. The animals, free from specific pathogenic organisms were housed in an air conditioned room for 24 to 48 hours before the start of the experiment. They were separated into groups of 5 males and 5 females. The materials were administered to animals which had been fasted for 24 hours by means of a gastric tube in suspension in a 6% thickened julep using a volume equivalent to 0.1 ml per 10 g of body weight. […] They remained under observation for two weeks before being sacrificed and autopsied.

phenylbenzoquinone (PBQ) = assay: analgesic activity, phenylbenzoquinone (PBQ) challenge; format: in vivo; settings: male Swiss mouse, oral; for ED50: method of Lichfield and Wilcoxon
Method: The analgesic activity was determined in the male Swiss mouse using phenylbenzoquinone (PBQ) as the challenging agent (variation of the method of Siegmund et al, Proc. Soc. Exp. Biol. Med. […], 95, 729-31). […] The ED50 was determined by the method of Lichfield and Wilcoxon.

carageenan-induced edema = assay: inhibition of carrageenan-induced edema; format: in vivo, male Wistar rat; settings: oral
Method: The inflammation is produced in the male Wistar rat by injection of 0.1 ml of a 0.5% suspension of carageenan in physiological serum, into the muscular fascia of the metatarsal region of the hind foot of the animal. The test substance is administered orally at the same time as the carageenan or 30 or 60 min before carageenan. The edema is measured by plethysmometry three hours after the adminstration of the carrageenan.

[2] = system: carrageenan-induced granulomas; assay: activity on carrageenan-induced granulomas; format: in vivo, Male Wistar rats
Method: Male Wistar rats weighing 130 to 150 grams were given a subcutaneous injection in the central part of the skin of the back of 0.5 ml of an aqueous suspension of carrageenan. Two doses of the test substance are administered, one 30 minutes before and the other 6 hours after carrageenan. At the end of 24 hours the rats were sacrificed and the granulomas were removed and weighed before and after drying for 24 hours at 50° C. The difference in weight of the granulomas wet and dry represents the exudate
These AD50 are respectively 175(142-215) and 175(150-205) mg/kg.

cotton pellet granulomas = assay: inhibition of cotton pellet granulomas; format: in vivo, male Sprague-Dawley rats; settings: oral, daily for 10 days
Method: Two cotton pellets weighing 70 mg were implanted under the back skin of male Sprague-Dawley rats anesthetized with ether. Starting the next day, the compound was administered orally daily for 10 days. The rats were sacrificed and the pellets were removed and weighed before and after drying at 50° C. for 24 hours. The weights used were those obtained after deduction of the weight of the implants. The average of the quantities so calculated was determined for each group and compared to the averages of the control group.

stomachs = assay: ulcerogenic activity; format: in vivo, female Wistar rat
Method: The ulcerogenic activity was determined in the female Wistar rat using a variation of the procedure described by J. M. Lwoff, J. Pharmacol. 1971, 3, 1, 81-3. The test substance was administered daily for 3 days to the animals maintained on a aqueous diet. The stomachs were removed after 1, 2, and 3 days of treatment and the ulcerations were classified from 0 to 4. The ulceration index is calculated for each group of animals as the product (average of the classes x the percentage of animals afflicted), while distinguishing acute ulcerations from ulcers which were in the process of healing.

solubility in water = format: physicochemical
blood sugar level = assay: antidiabetic activity, blood sugar level in streptozotocin hyperglycemic rats; format: in vivo, Female rats; set-up: key: NS: the difference between the blood sugar level in the treated animals and the control animals is not significant; the difference is significant by Student's test at p≤0.05; settings: oral
Method: Female rats weighing 180-200 grams were given an intraperitoneal dose on day J0 of 100 mg/kg of streptozotocin in a 0.05 M citrate buffer at a pH of 4.5 calculated as 0.5 ml per 100 g of body weight. On day J2 hyperglycemic animals were selected by determining the blood sugar level by the orthotoludine method in a stream continuously removed from the retroorbital sinus. […] On day J3, without previous fasting, the selected animals received the treatment. This consisted of oral administration of the test compound in a 6% aqueous suspension of gum arabic at a volume of 0.5 ml per 100 g of body weight.
The animals were sacrificed one, two, or four hours after the treatment and their blood sugar levels were determined. Each group of animals was compared to a control group of animals which received only the suspension of gum arabic. Metformin was the substance chosen as the control.
The results are given in Table 8 which indicates the percentage of decrease in the blood sugar level produced by the treatment.

## Cc1ccsc1C=Nc1ccc2c(c1)OCO2 [Example 4, N-(3-methyl-2-thienylidene)-5-aminobenzodioxole-1,3]
[1]; 750 mg/kg
  mortality at 336 h: 10%
[1]; 1000 mg/kg
  mortality at 336 h: 10%
[1]; 1500 mg/kg
  mortality at 336 h: 60%
[1]; 1750 mg/kg
  mortality at 336 h: 20%
[1]; 2000 mg/kg
  mortality at 336 h: 20%
Phenylbenzoquinone (PBQ); 75 mg/kg
  % analgesic activity: 21%
Phenylbenzoquinone (PBQ); 100 mg/kg
  % analgesic activity: 40%
Phenylbenzoquinone (PBQ); 150 mg/kg
  % analgesic activity: 37%
Phenylbenzoquinone (PBQ); 200 mg/kg
  % analgesic activity: 62%
Phenylbenzoquinone (PBQ); 300 mg/kg
  % analgesic activity: 67%
Phenylbenzoquinone (PBQ)
  ED50: 170 mg/kg
carageenan-induced edema; at To, 75 mg/kg
  % inhibiting activity on carrageenan-induced edema: 35%
carageenan-induced edema; at To, 150 mg/kg
  % inhibiting activity on carrageenan-induced edema: 35%
carageenan-induced edema; at To, 300 mg/kg
  % inhibiting activity on carrageenan-induced edema: 68%
[2]; 100 mg/kg administered twice
  Exudate, % activity: 21%
  Exudate, % animals 30% protected: 38%
  Weight of dry granuloma, % activity: 16%
  Weight of dry granuloma, % animals 30% protected: 31%
  Weight of wet granuloma, % activity: 20.5%
  Weight of wet granuloma, % animals 30% protected: 38%
[2]; 200 mg/kg administered twice
  Exudate, % activity: 34.5%
  Exudate, % animals 30% protected: 71%
  Weight of dry granuloma, % activity: 31%
  Weight of dry granuloma, % animals 30% protected: 64%
  Weight of wet granuloma, % activity: 34%
  Weight of wet granuloma, % animals 30% protected: 71%
[2]; 300 mg/kg administered twice
  Exudate, % activity: 44.5%
  Exudate, % animals 30% protected: 75%
  Weight of dry granuloma, % activity: 42.5%
  Weight of dry granuloma, % animals 30% protected: 67%
  Weight of wet granuloma, % activity: 44.5%
  Weight of wet granuloma, % animals 30% protected: 75%
Cotton pellet granulomas; dose 150
  % inhibition with respect to dry pellets: 10%
  % inhibition with respect to wet pellets: 13%
Cotton pellet granulomas; dose 300
  % inhibition with respect to dry pellets: 19%
  % inhibition with respect to wet pellets: 14%
stomachs; 150 mg/kg daily, Day 1
  Ulceration Index, acute: 0
  Ulceration Index, healing: 0
stomachs; 150 mg/kg daily, Day 2
  Ulceration Index, acute: 0
  Ulceration Index, healing: 8
stomachs; 150 mg/kg daily, Day 3
  Ulceration Index, acute: 72
  Ulceration Index, healing: 16
Solubility in water
  solubility in water: insoluble in water

## C(=Nc1ccc2c(c1)OCO2)c1cccs1 [Example 1, N-thienylidene-5-aminobenzodioxole-1,3]
[1]; 1000 mg/kg
  mortality at 336 h: 0%
[1]; 1500 mg/kg
  mortality at 336 h: 20%
[1]; 2000 mg/kg
  mortality at 336 h: 60%
[1]; 3000 mg/kg
  mortality at 336 h: 70%
Phenylbenzoquinone (PBQ); 100 mg/kg
  % analgesic activity: 34%
Phenylbenzoquinone (PBQ); 125 mg/kg
  % analgesic activity: 43%
Phenylbenzoquinone (PBQ); 150 mg/kg
  % analgesic activity: 69%
Phenylbenzoquinone (PBQ); 200 mg/kg
  % analgesic activity: 73%
Phenylbenzoquinone (PBQ)
  ED50: 130 mg/kg
carageenan-induced edema; at To (same time as carrageenan), 25 mg/kg
  % inhibiting activity on carrageenan-induced edema: 19%
carageenan-induced edema; at To, 50 mg/kg
  % inhibiting activity on carrageenan-induced edema: 41%
carageenan-induced edema; at To, 100 mg/kg
  % inhibiting activity on carrageenan-induced edema: 52%
carageenan-induced edema; at To, 200 mg/kg
  % inhibiting activity on carrageenan-induced edema: 56%
carageenan-induced edema; at To, 400 mg/kg
  % inhibiting activity on carrageenan-induced edema: 58%
[2]; 200 mg/kg administered twice
  Exudate, % activity: 6%
  Exudate, % animals 30% protected: 12.5%
  Weight of dry granuloma, % activity: 1%
  Weight of dry granuloma, % animals 30% protected: 12.5%
  Weight of wet granuloma, % activity: 6%
  Weight of wet granuloma, % animals 30% protected: 12.5%
Solubility in water
  solubility in water: insoluble in water

## O=C(O)c1cccnc1Nc1cccc(C(F)(F)F)c1 [Niflumic Acid, reference compound]
carageenan-induced edema; at To, 75 mg/kg
  % inhibiting activity on carrageenan-induced edema: 37%
carageenan-induced edema; at To, 100 mg/kg
  % inhibiting activity on carrageenan-induced edema: 27%
carageenan-induced edema; at To, 125 mg/kg
  % inhibiting activity on carrageenan-induced edema: 40%
carageenan-induced edema; at To, 150 mg/kg
  % inhibiting activity on carrageenan-induced edema: 37% and 59%
[2]; 25 mg/kg administered twice
  Exudate, % activity: 42.5%
  Exudate, % animals 30% protected: 100%
  Weight of dry granuloma, % activity: 41.5%
  Weight of dry granuloma, % animals 30% protected: 87%
  Weight of wet granuloma, % activity: 42.5%
  Weight of wet granuloma, % animals 30% protected: 100%
Cotton pellet granulomas; dose 50
  % inhibition with respect to dry pellets: 12%
  % inhibition with respect to wet pellets: 3%
stomachs; 100 mg/kg daily, Day 1
  Ulceration Index, acute: 330
  Ulceration Index, healing: 0
stomachs; 100 mg/kg daily, Day 2
  Ulceration Index, acute: 1
  Ulceration Index, healing: 400
stomachs; 100 mg/kg daily, Day 3
  Ulceration Index, acute: 119
  Ulceration Index, healing: 378

## CN(C)C(=N)N=C(N)N [Metformin, reference compound]
Blood sugar level; 200 mg/kg, treatment 1 h before sacrificing
  Percentage Decrease in the Blood Sugar: NS
Blood sugar level; 200 mg/kg, treatment 2 h before sacrificing
  Percentage Decrease in the Blood Sugar: NS
Blood sugar level; 200 mg/kg, treatment 4 h before sacrificing
  Percentage Decrease in the Blood Sugar: NS
Blood sugar level; 400 mg/kg, treatment 1 h before sacrificing
  Percentage Decrease in the Blood Sugar: 14%
Blood sugar level; 400 mg/kg, treatment 2 h before sacrificing
  Percentage Decrease in the Blood Sugar: NS
Blood sugar level; 400 mg/kg, treatment 4 h before sacrificing
  Percentage Decrease in the Blood Sugar: 15%

## CC(=O)Oc1ccccc1C(=O)O [Aspirin, reference compound]
carageenan-induced edema; at To, 75 mg/kg
  % inhibiting activity on carrageenan-induced edema: 40%
carageenan-induced edema; at To, 150 mg/kg
  % inhibiting activity on carrageenan-induced edema: 46%
carageenan-induced edema; at To, 300 mg/kg
  % inhibiting activity on carrageenan-induced edema: 68%
carageenan-induced edema; at To, 450 mg/kg
  % inhibiting activity on carrageenan-induced edema: 64%
